Source: patent US20250332173A1, “COMPOUNDS AND METHODS FOR MODULATING NUCLEIC ACID SPLICING” (REMIX THERAPEUTICS INC., priority 2021, published 2025)
Read-outs that look alike come from different tables or passages of the source.

Key:
[1] = system: HTT mRNA; test: RT-qPCR splicing assay, HTT canonical junction (CJ) and alternative junction (AJ) mRNA; type: cell-based, human; conditions: Homo sapiens; for AC50: increase in HTT alternative junction (AJ) mRNA, read-out: HTT AJ AC50
Outline: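 Following a 24-hour incubation of A673 or K562 cells with serially diluted compound (3-fold steps, highest final 10 uM), the lysates undergo cDNA synthesis plus qPCR. Canonical and alternative junctions are each quantified against PPIA, GAPDH or GUSB.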

[2] = system: Target C; test: HiBiT protein abundance assay, Target C HiBiT K562 cell line; type: cell-based; conditions: Homo sapiens; HiBiT lytic detection, modified K562 cells, 24 hours, top dose 10 μM; read-out: Effect on protein abundance, Target C (IC50)
Outline: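 HiBiT knock-in K562 cells (10,000/well) were treated for 24 h at 37 °C with a 10-point 3-fold dilution series, top final concentration 10 μM, DMSO ≤0.25%. Lytic HiBiT luminescence was read, normalized to unmodified K562 and DMSO-treated controls, and IC50 was interpolated from a four-parameter logistic fit.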

[3] = decrease in HTT canonical junction (CJ) mRNA, RT-qPCR, read-out: HTT CJ IC50
[4] = canonical junction qPCR panel, Table 5, read-out: HTT (decrease in CJ mRNA levels, IC50)
[5] = Table 5 panel, canonical junction qPCR, compound concentration having 50% response in CJ decrease, read-out: HTT IC50 (decrease in CJ mRNA levels)

Structure (SMILES) | IC50 [1, 3] [nM] | AC50 ([1]; RT-qPCR) [nM] | IC50 [1, 4] [nM] | IC50 [2] [nM] | IC50 [1, 5] [nM]
Cc1cn2nc(-c3ccc4c(=O)n(C5CCNCC5)ncc4n3)cc(C)c2n1 [Compound 1247] | < 100 | < 100 | < 100 | < 100 | –
Cn1cc2cc(-c3ccc4c(=O)n(C5CCNC6(CC6)C5)ncc4n3)c(O)cc2n1 (stereo not shown) [Compound 1306] | 100 to 1000 | 100 to 1000 | 100 to 1000 | 100 to 1000 | –
CCN1CCC(n2ncc3nc(-c4cc(C)c5nc(C)cn5n4)ccc3c2=O)CC1 [Compound 1308] | 100 to 1000 | < 100 | < 100 | 100 to 1000 | –
CCN1CCC(n2ncc3nc(-c4cc5cn(C)nc5cc4O)ccc3c2=O)CC1 [Compound 1310] | 1000 to 10000 | 100 to 1000 | 100 to 1000 | 1000 to 10000 | –
Cc1cn2nc(-c3ccc4c(=O)n(C5CCN(CCF)CC5)ncc4n3)cc(C)c2n1 [Compound 1309] | 100 to 1000 | < 100 | < 100 | 100 to 1000 | –
Cc1cn2nc(-c3ccc4c(=O)n(C5CCN(C)CC5)ncc4n3)cc(C)c2n1 [Compound 1311] | 100 to 1000 | 100 to 1000 | 100 to 1000 | 100 to 1000 | –
CN1CCC(n2ncc3nc(-c4cc5cn(C)nc5cc4O)ccc3c2=O)CC1 [Compound 1307] | 1000 to 10000 | 1000 to 10000 | 1000 to 10000 | 1000 to 10000 | –
Cc1cn2nc(-c3ccc4c(c3F)CCN(C3CCNCC3)C4=O)cc(C)c2n1 [Compound 188] | 1000 to 10000 | 1000 to 10000 | – | – | 1000 to 10000
Cc1cc(-c2cc3ccn(C4CCNCC4)c(=O)c3cn2)cc2cn(C)nc12 [Compound 1204, 6-(2,7-dimethyl-2H-indazol-5-yl)-2-(piperidin-4-yl)-2,7-naphthyridin-1(2H)-one] | 100 to 1000 | 100 to 1000 | – | – | 100 to 1000
Cc1cn2cc(-c3ncc4c(=O)n(C5CCNCC5)ccc4n3)cc(C#N)c2n1 [Compound 1301] | 100 to 1000 | 100 to 1000 | 100 to 1000 | – | –
Cc1cn2cc(-c3ncc4c(=O)n(C5CCNC5)ccc4n3)c(O)c(C)c2n1 (stereo not shown) [Compound 1227] | > 10000 | > 10000 | – | – | > 10000
Cc1cc(-c2cc3ccn(C4CCN(C5CC5)CC4)c(=O)c3cn2)cc2cn(C)nc12 [Compound 1208, 2-(1-cyclopropylpiperidin-4-yl)-6-(2,7-dimethyl-2H-indazol-5-yl)-2,7-naphthyridin-1(2H)-one] | > 10000 | > 10000 | – | – | > 10000
Cc1c(O)c(-c2ncc3c(=O)n([C@H]4C[C@H](N)C4)ccc3n2)cc2cn(C)nc12 [Compound 1432, 6-((1r,3r)-3-aminocyclobutyl)-2-(6-hydroxy-2,7-dimethyl-2H-indazol-5-yl)pyrido[4,3-d]pyrimidin-5(6H)-one] | 1000 to 10000 | 1000 to 10000 | 1000 to 10000 | – | –
Cc1c(O)c(-c2ccc3c(=O)n([C@H]4CCNC4)ccc3n2)cc2cn(C)nc12 [Compound 1449, 2-(6-hydroxy-2,7-dimethyl-indazol-5-yl)-6-[(3S)-pyrrolidin-3-yl]-1,6-naphthyridin-5-one] | 1000 to 10000 | 1000 to 10000 | 1000 to 10000 | – | –
CN1CCC(Nc2ccc3c(=O)n(-c4ccc5cn(C)nc5c4)cnc3c2)CC1 [Compound 203] | > 10000 | > 10000 | – | – | > 10000
Cc1cn2cc(-c3ncc4c(=O)n(C5CCNC5)ccc4n3)cc(F)c2n1 (stereo not shown) [Compound 1215] | > 10000 | > 10000 | – | – | > 10000
Cc1cn2cc(-c3ccc4c(=O)n(C5CCNCC5)ccc4n3)cc(C#N)c2n1 [Compound 1297] | 100 to 1000 | 100 to 1000 | 100 to 1000 | – | –
Cc1c(O)c(-c2ncc3c(=O)n([C@@H]4CCN[C@H](C)C4)ccc3n2)cc2cn(C)nc12 [Compound 1434, 2-(6-hydroxy-2,7-dimethyl-indazol-5-yl)-6-(2-methyl-4-piperidyl)pyrido[4,3-d]pyrimidin-5-one] | 1000 to 10000 | 100 to 1000 | 100 to 1000 | – | –
Cc1cn2cc(-c3ccc4c(=O)n(C5CCNCC5)ccc4n3)c(O)cc2n1 [Compound 1240] | > 10000 | > 10000 | > 10000 | – | –
Cc1c(O)c(-c2ccc3c(=O)n(C4CCNCC4)cc(C)c3n2)cc2cn(C)nc12 [Compound 1284] | 100 to 1000 | < 100 | < 100 | – | –
Cc1c(O)c(-c2ncc3c(=O)n(C4CCNC4)ccc3n2)cc2cn(C)nc12 (stereo in doubt) [Compound 1439, (6R)-2-(6-hydroxy-2,7-dimethyl-indazol-5-yl)-6-pyrrolidin-3-yl-pyrido[4,3-d]pyrimidin-5-one] | > 10000 | 1000 to 10000 | 1000 to 10000 | – | –
Cc1c(O)c(-c2ncc3c(=O)n(C4CCNC(C)(C)C4)ccc3n2)cc2cn(C)nc12 (stereo not shown) [Compound 1442] | 1000 to 10000 | 100 to 1000 | 100 to 1000 | – | –
Cc1cc(-c2cc3ccn(C4CCN(C5COC5)CC4)c(=O)c3cn2)cc2cn(C)nc12 [Compound 1209, 6-(2,7-dimethyl-2H-indazol-5-yl)-2-(1-(oxetan-3-yl)piperidin-4-yl)-2,7-naphthyridin-1(2H)-one-1] | 100 to 1000 | 100 to 1000 | – | – | 100 to 1000
Cc1cn2cc(-c3cc4ccn(C5CCNCC5)c(=O)c4cn3)nc(C)c2n1 [Compound 1205, 6-(2,8-dimethylimidazo[1,2-a]pyrazin-6-yl)-2-(piperidin-4-yl)-2,7-naphthyridin-1(2H)-one] | 100 to 1000 | 100 to 1000 | – | – | 100 to 1000
Cc1cn2nc(-c3cc4ccn(C5CCNCC5)c(=O)c4cn3)cc(C)c2n1 [Compound 1198, 6-(2,8-dimethylimidazo[1,2-b]pyridazin-6-yl)-2-(piperidin-4-yl)-2,7-naphthyridin-1(2H)-one] | 100 to 1000 | 100 to 1000 | – | – | 100 to 1000
CCN1CCC(n2ccc3cc(-c4cc(C)c5nn(C)cc5c4)ncc3c2=O)CC1 [Compound 1207, 6-(2,7-dimethyl-2H-indazol-5-yl)-2-(1-ethylpiperidin-4-yl)-2,7-naphthyridin-1(2H)-one] | 1000 to 10000 | 1000 to 10000 | – | – | 1000 to 10000
